In article PMC5218480 (PLoS ONE, 2017):

Tested on: MV-4-11 cells
Assay: Gene expression microarray analysis (Affymetrix PrimeView) and GSEA
Type: cell-based, human
Design: RFU PODN (11730768_x_at) / Fold change /veh PODN (11730768_x_at) / RFU LINC00158 (11744669_a_at) / Fold change /veh LINC00158 (11744669_a_at) / RFU DUSP10 (11751237_a_at) / Fold change /veh DUSP10 (11751237_a_at) / RFU ID3 (11757404_x_at) / Fold change /veh ID3 (11757404_x_at) / RFU PLEKHG5 (11737974_s_at) / Fold change /veh PLEKHG5 (11737974_s_at) / RFU LRRC4B (11730491_at) / Fold change /veh LRRC4B (11730491_at) / RFU GIMAP4 (11747438_a_at) / Fold change /veh GIMAP4 (11747438_a_at) / RFU KRT8 (11758183_x_at) / Fold change /veh KRT8 (11758183_x_at) / RFU CNN1 (11734310_a_at) / Fold change /veh CNN1 (11734310_a_at) / RFU VPS37D (11726825_at) / Fold change /veh VPS37D (11726825_at) / RFU C10orf10 (11716522_x_at) / Fold change /veh C10orf10 (11716522_x_at) / RFU KIR2DL2 /// KIR2DL4 /// KIR2DL5A /// KIR2DL5B /// KIR2DS1 /// KIR2DS2 /// KIR2DS3 /// KIR2DS4 /// KIR3DL3 /// KIR3DL3 /// KIR3DS1 (11738374_at) / Fold change /veh KIR2DL2 /// KIR2DL4 /// KIR2DL5A /// KIR2DL5B /// KIR2DS1 /// KIR2DS2 /// KIR2DS3 /// KIR2DS4 /// KIR3DL3 /// KIR3DL3 /// KIR3DS1 (11738374_at) / RFU C1QL1 (11718748_at) / Fold change /veh C1QL1 (11718748_at) / RFU TMPRSS4 (11747572_a_at) / Fold change /veh TMPRSS4 (11747572_a_at) / RFU HAMP (11756126_x_at) / Fold change /veh HAMP (11756126_x_at) / RFU RNFT2 (11725882_a_at) / Fold change /veh RNFT2 (11725882_a_at) / RFU NR4A2 (11747474_a_at) / Fold change /veh NR4A2 (11747474_a_at) / RFU ABCC12 (11746883_a_at) / Fold change /veh ABCC12 (11746883_a_at) / RFU TMEM136 (11760407_x_at) / Fold change /veh TMEM136 (11760407_x_at) / RFU CLDN22 /// WWC2 (11732394_at) / Fold change /veh CLDN22 /// WWC2 (11732394_at) / RFU HLA-DPB1 (11760878_x_at) / Fold change /veh HLA-DPB1 (11760878_x_at) / RFU SPINT1 (11716480_a_at) / Fold change /veh SPINT1 (11716480_a_at) / RFU GAP43 (11754022_s_at) / Fold change /veh GAP43 (11754022_s_at) / RFU A4GNT (11735810_at) / Fold change /veh A4GNT (11735810_at) / RFU PRB3 (11715151_x_at) / Fold change /veh PRB3 (11715151_x_at) / RFU TUBB4B (11761932_at) / Fold change /veh TUBB4B (11761932_at) / RFU CAPN14 (11732068_a_at) / Fold change /veh CAPN14 (11732068_a_at) / RFU TMCC2 (11721928_a_at) / Fold change /veh TMCC2 (11721928_a_at) / RFU IRGQ (11745062_a_at) / Fold change /veh IRGQ (11745062_a_at) / RFU FAM174B (11720279_a_at) / Fold change /veh FAM174B (11720279_a_at) / RFU TMPRSS4 (11748680_a_at) / Fold change /veh TMPRSS4 (11748680_a_at) / RFU FAM212B (11763350_a_at) / Fold change /veh FAM212B (11763350_a_at) / RFU PLEKHG5 (11743358_a_at) / Fold change /veh PLEKHG5 (11743358_a_at) / RFU ZSCAN30 (11745921_a_at) / Fold change /veh ZSCAN30 (11745921_a_at) / RFU CMKLR1 (11741424_a_at) / Fold change /veh CMKLR1 (11741424_a_at) / RFU LOC101060620 /// MAPK8IP1 (11723275_at) / Fold change /veh LOC101060620 /// MAPK8IP1 (11723275_at) / RFU SPTSSB (11747773_x_at) / Fold change /veh SPTSSB (11747773_x_at) / RFU PRSS12 (11739890_at) / Fold change /veh PRSS12 (11739890_at) / RFU BIN1 (11741810_x_at) / Fold change /veh BIN1 (11741810_x_at) / RFU WNT11 (11732464_a_at) / Fold change /veh WNT11 (11732464_a_at) / RFU C10orf10 (11716521_a_at) / Fold change /veh C10orf10 (11716521_a_at) / RFU C5orf56 (11738089_at) / Fold change /veh C5orf56 (11738089_at) / RFU CYB561 (11721691_x_at) / Fold change /veh CYB561 (11721691_x_at) / RFU ANKRD19P (11752326_a_at) / Fold change /veh ANKRD19P (11752326_a_at) / RFU OR2T12 /// OR2T33 /// OR2T8 (11738714_s_at) / Fold change /veh OR2T12 /// OR2T33 /// OR2T8 (11738714_s_at) / RFU VCAN (11748164_a_at) / Fold change /veh VCAN (11748164_a_at) / RFU JSRP1 (11732532_at) / Fold change /veh JSRP1 (11732532_at) / RFU KRTAP10-11 (11738290_x_at) / Fold change /veh KRTAP10-11 (11738290_x_at) / RFU MYO3A (11730013_a_at) / Fold change /veh MYO3A (11730013_a_at) / RFU EBF3 (11725865_a_at) / Fold change /veh EBF3 (11725865_a_at) / RFU CAMK2N1 (11719241_x_at) / Fold change /veh CAMK2N1 (11719241_x_at) / RFU C5orf56 (11738088_a_at) / Fold change /veh C5orf56 (11738088_a_at) / RFU OLFML3 (11715873_a_at) / Fold change /veh OLFML3 (11715873_a_at) / RFU LOC100653217 /// NTM (11731650_a_at) / Fold change /veh LOC100653217 /// NTM (11731650_a_at) / RFU MAPK11 (11762145_a_at) / Fold change /veh MAPK11 (11762145_a_at) / RFU FIZ1 (11724087_x_at) / Fold change /veh FIZ1 (11724087_x_at) / RFU OASL (11726364_x_at) / Fold change /veh OASL (11726364_x_at) / RFU SOX15 (11748057_x_at) / Fold change /veh SOX15 (11748057_x_at) / RFU CD79A (11719716_a_at) / Fold change /veh CD79A (11719716_a_at) / RFU HIST1H1D (11736915_at) / Fold change /veh HIST1H1D (11736915_at) / RFU CASKIN2 (11723855_a_at) / Fold change /veh CASKIN2 (11723855_a_at) / RFU LOC730098 (11760151_x_at) / Fold change /veh LOC730098 (11760151_x_at) / RFU OR4N2 (11742367_at) / Fold change /veh OR4N2 (11742367_at) / RFU PRRT2 (11749266_a_at) / Fold change /veh PRRT2 (11749266_a_at) / RFU SNX32 (11753110_a_at) / Fold change /veh SNX32 (11753110_a_at) / RFU CDHR5 (11726645_a_at) / Fold change /veh CDHR5 (11726645_a_at) / RFU RCAN1 (11760418_a_at) / Fold change /veh RCAN1 (11760418_a_at) / RFU FAM167A (11723789_a_at) / Fold change /veh FAM167A (11723789_a_at) / RFU FAM26E (11764081_at) / Fold change /veh FAM26E (11764081_at) / RFU ISYNA1 (11749810_s_at) / Fold change /veh ISYNA1 (11749810_s_at) / RFU ACY1 (11761880_at) / Fold change /veh ACY1 (11761880_at) / RFU 11764098_at / Fold change /veh 11764098_at / RFU SAMD14 (11745864_x_at) / Fold change /veh SAMD14 (11745864_x_at) / RFU NPB (11741838_a_at) / Fold change /veh NPB (11741838_a_at) / RFU TMPRSS6 (11731388_a_at) / Fold change /veh TMPRSS6 (11731388_a_at) / RFU KRTAP10-2 (11738614_at) / Fold change /veh KRTAP10-2 (11738614_at) / RFU ARHGAP8 /// PRR5-ARHGAP8 (11727945_x_at) / Fold change /veh ARHGAP8 /// PRR5-ARHGAP8 (11727945_x_at) / RFU KRTAP5-7 /// NADSYN1 (11734609_at) / Fold change /veh KRTAP5-7 /// NADSYN1 (11734609_at) / RFU RASL12 (11751679_a_at) / Fold change /veh RASL12 (11751679_a_at) / RFU CDKN2B (11736163_a_at) / Fold change /veh CDKN2B (11736163_a_at) / RFU PRF1 (11729649_at) / Fold change /veh PRF1 (11729649_at) / RFU, ZNF638 /// ZNF638-IT1 / Fold change vs veh, ZNF638 /// ZNF638-IT1 / RFU, PANK3 / Fold change vs veh, PANK3 / RFU, SH3YL1 / Fold change vs veh, SH3YL1 / RFU, ZEB2 / Fold change vs veh, ZEB2 / RFU, NRIP1 / Fold change vs veh, NRIP1 / RFU, PTTG1IP / Fold change vs veh, PTTG1IP / RFU, CAPN2 / Fold change vs veh, CAPN2 / RFU, MED14 / Fold change vs veh, MED14 / RFU, SNORA58 / Fold change vs veh, SNORA58 / RFU, C1orf63 / Fold change vs veh, C1orf63 / RFU, LRRFIP1 / Fold change vs veh, LRRFIP1 / RFU, NDUFAF7 / Fold change vs veh, NDUFAF7 / RFU, SLC12A2 / Fold change vs veh, SLC12A2 / RFU, IBTK / Fold change vs veh, IBTK / RFU, ESF1 / Fold change vs veh, ESF1 / Fold change vs veh, TMEM50B / RFU, TAOK1 / Fold change vs veh, TAOK1 / RFU, ACBD3 / Fold change vs veh, ACBD3 / RFU, TMA16 / Fold change vs veh, TMA16 / RFU, RWDD3 / Fold change vs veh, RWDD3 / RFU, BCAT1 / Fold change vs veh, BCAT1 / RFU, EDEM3 / Fold change vs veh, EDEM3 / RFU, TMEM33 / Fold change vs veh, TMEM33 / RFU, WDR75 / Fold change vs veh, WDR75 / RFU, AHCTF1 / Fold change vs veh, AHCTF1 / RFU, TFRC / Fold change vs veh, TFRC / RFU, ZDHHC17 / Fold change vs veh, ZDHHC17 / RFU, NOM1 / Fold change vs veh, NOM1 / RFU, ARL8B / Fold change vs veh, ARL8B / RFU, ZBTB11 / Fold change vs veh, ZBTB11 / RFU, TAMM41 / Fold change vs veh, TAMM41 / RFU, KIAA1704 /// LOC100996395 / Fold change vs veh, KIAA1704 /// LOC100996395 / RFU, ING1 / Fold change vs veh, ING1 / RFU, TRMT61B / Fold change vs veh, TRMT61B / RFU, FUBP3 / Fold change vs veh, FUBP3 / RFU, TP53 / Fold change vs veh, TP53 / RFU, TNKS2 / Fold change vs veh, TNKS2 / RFU, ZFP14 / Fold change vs veh, ZFP14 / RFU, ACTR2 / Fold change vs veh, ACTR2 / RFU, PPP3R1 / Fold change vs veh, PPP3R1 / RFU, PIK3R1 / Fold change vs veh, PIK3R1 / RFU, HNRNPA1 / Fold change vs veh, HNRNPA1 / RFU, RNF170 / Fold change vs veh, RNF170 / RFU, ZNF28 / Fold change vs veh, ZNF28 / RFU, RNGTT / Fold change vs veh, RNGTT / RFU, OGT / Fold change vs veh, OGT / RFU, BRD1 / Fold change vs veh, BRD1 / RFU, MARS / Fold change vs veh, MARS / RFU, ZNF655 / Fold change vs veh, ZNF655 / RFU, FAHD1 / Fold change vs veh, FAHD1 / RFU, BDP1 / Fold change vs veh, BDP1 / RFU, LRRCC1 / Fold change vs veh, LRRCC1 / RFU, ARID1A / Fold change vs veh, ARID1A / RFU, ZNF146 / Fold change vs veh, ZNF146 / RFU, ZNF330 / Fold change vs veh, ZNF330 / RFU, GPN3 / Fold change vs veh, GPN3 / RFU, C9orf123 / Fold change vs veh, C9orf123 / RFU, N4BP2L2 / Fold change vs veh, N4BP2L2 / RFU, ARFIP1 / Fold change vs veh, ARFIP1 / RFU, FAM179B / Fold change vs veh, FAM179B / RFU, BCL10 / Fold change vs veh, BCL10 / RFU, UHRF1BP1L / Fold change vs veh, UHRF1BP1L / RFU, BET1 / Fold change vs veh, BET1 / RFU, CNOT2 / Fold change vs veh, CNOT2 / RFU, ZNF268 / Fold change vs veh, ZNF268 / Fold change vs veh, ZNF507 / RFU, DGCR2 / Fold change vs veh, DGCR2 / RFU, WDSUB1 / Fold change vs veh, WDSUB1 / Fold change vs veh, HSP90B1 /// MIR3652 / RFU, ADSS / Fold change vs veh, ADSS / RFU, GK / Fold change vs veh, GK / RFU, ZNF148 / Fold change vs veh, ZNF148 / RFU, TAF9 / Fold change vs veh, TAF9 / RFU, SLC1A5 / Fold change vs veh, SLC1A5 / RFU, SLMO2 / Fold change vs veh, SLMO2 / RFU, ABCC4 / Fold change vs veh, ABCC4 / RFU, LOC101060439 /// RAP1B / Fold change vs veh, LOC101060439 /// RAP1B / RFU, RFX7 / Fold change vs veh, RFX7 / RFU, GTPBP10 / Fold change vs veh, GTPBP10 / RFU, CNEP1R1 / Fold change vs veh, CNEP1R1 / RFU, BIVM-ERCC5 /// ERCC5 / Fold change vs veh, BIVM-ERCC5 /// ERCC5 / RFU, ILF3 / Fold change vs veh, ILF3 / RFU 11762660_at / Fold change /veh 11762660_at / RFU VCAN (11757783_s_at) / Fold change /veh VCAN (11757783_s_at) / RFU DDX43 (11728927_at) / Fold change /veh DDX43 (11728927_at) / RFU KRT8 (11758188_x_at) / Fold change /veh KRT8 (11758188_x_at) / RFU NKD1 (11759106_at) / Fold change /veh NKD1 (11759106_at) / RFU SRD5A1 (11742802_a_at) / Fold change /veh SRD5A1 (11742802_a_at) / RFU TPSAB1 /// TPSB2 (11721975_s_at) / Fold change /veh TPSAB1 /// TPSB2 (11721975_s_at) / RFU GSTM3 (11746129_a_at) / Fold change /veh GSTM3 (11746129_a_at) / RFU IL23R (11737362_x_at) / Fold change /veh IL23R (11737362_x_at) / RFU TMEM51 (11727254_a_at) / Fold change /veh TMEM51 (11727254_a_at) / RFU PIWIL2 (11732686_x_at) / Fold change /veh PIWIL2 (11732686_x_at) / RFU ORM1 (11744905_x_at) / Fold change /veh ORM1 (11744905_x_at) / RFU CCDC152 (11743942_at) / Fold change /veh CCDC152 (11743942_at) / RFU ECM1 (11717891_a_at) / Fold change /veh ECM1 (11717891_a_at) / RFU IL23R (11748794_a_at) / Fold change /veh IL23R (11748794_a_at) / RFU TNFAIP8L3 (11732012_x_at) / Fold change /veh TNFAIP8L3 (11732012_x_at) / RFU MBOAT4 (11741988_at) / Fold change /veh MBOAT4 (11741988_at) / RFU 11764193_at / Fold change /veh 11764193_at / RFU TMEM53 (11763286_at) / Fold change /veh TMEM53 (11763286_at) / RFU MAGEB2 (11727129_at) / Fold change /veh MAGEB2 (11727129_at) / RFU TMEM200A (11744735_a_at) / Fold change /veh TMEM200A (11744735_a_at) / RFU CCDC152 (11751479_a_at) / Fold change /veh CCDC152 (11751479_a_at) / RFU FAM211A (11726209_a_at) / Fold change /veh FAM211A (11726209_a_at) / RFU RGS16 (11746705_a_at) / Fold change /veh RGS16 (11746705_a_at) / RFU VCAN (11755009_s_at) / Fold change /veh VCAN (11755009_s_at) / RFU RHOB (11743442_s_at) / Fold change /veh RHOB (11743442_s_at) / RFU RGS16 (11720943_a_at) / Fold change /veh RGS16 (11720943_a_at) / RFU RGS16 (11720944_at) / Fold change /veh RGS16 (11720944_at) / RFU, VPS4B / Fold change vs veh, VPS4B / RFU, CREB1 / Fold change vs veh, CREB1 / RFU, DNAJC13 / Fold change vs veh, DNAJC13 / RFU, GNAQ / Fold change vs veh, GNAQ / RFU, CDK5R1 / Fold change vs veh, CDK5R1 / RFU, ZRANB3 / Fold change vs veh, ZRANB3 / RFU, CUL4A / Fold change vs veh, CUL4A / RFU, CCNY / Fold change vs veh, CCNY / RFU, UFL1 / Fold change vs veh, UFL1 / RFU, COG3 / Fold change vs veh, COG3 / RFU, DIAPH2 / Fold change vs veh, DIAPH2 / RFU, SKA2 / Fold change vs veh, SKA2 / RFU, AFF3 / Fold change vs veh, AFF3 / RFU, LMF1 / Fold change vs veh, LMF1 / RFU, IPO11 / Fold change vs veh, IPO11 / RFU, DFFB / Fold change vs veh, DFFB / RFU, FOXP1 / Fold change vs veh, FOXP1 / RFU, CARD8 / Fold change vs veh, CARD8 / RFU, STRN3 / Fold change vs veh, STRN3 / RFU, ADK / Fold change vs veh, ADK / RFU, RASSF2 / Fold change vs veh, RASSF2 / RFU, WIPF1 / Fold change vs veh, WIPF1 / RFU, LARP1B / Fold change vs veh, LARP1B / RFU, RASA1 / Fold change vs veh, RASA1 / RFU, RB1 / Fold change vs veh, RB1 / RFU, PPFIA1 / Fold change vs veh, PPFIA1 / RFU, MAT2A / Fold change vs veh, MAT2A / RFU, CCT5 / Fold change vs veh, CCT5 / RFU, WDR92 / Fold change vs veh, WDR92 / RFU, CUX1 / Fold change vs veh, CUX1 / RFU, TTC7A / Fold change vs veh, TTC7A / RFU, TMEM135 / Fold change vs veh, TMEM135 / RFU, DEPTOR / Fold change vs veh, DEPTOR / RFU, CPM / Fold change vs veh, CPM / RFU, DNAJB6 / Fold change vs veh, DNAJB6 / RFU, CACNA2D3 / Fold change vs veh, CACNA2D3 / RFU, DTX4 / Fold change vs veh, DTX4 / RFU, TFCP2 / Fold change vs veh, TFCP2 / RFU, GMCL1 /// GMCL1P1 / Fold change vs veh, GMCL1 /// GMCL1P1 / RFU, AEBP2 / Fold change vs veh, AEBP2 / RFU, SNHG1 /// SNORD22 /// SNORD25 /// SNORD26 /// SNORD27 /// SNORD28 /// SNORD29 /// SNORD31 / Fold change vs veh, SNHG1 /// SNORD22 /// SNORD25 /// SNORD26 /// SNORD27 /// SNORD28 /// SNORD29 /// SNORD31 / Fold change (Aza/veh), C12orf56 (ProbeSet 11735607_a_at) / Fold change (ACY-1035/veh), C12orf56 (ProbeSet 11735607_a_at) / Fold change (Aza/veh), FGFR1OP (ProbeSet 11751329_s_at) / Fold change (ACY-1035/veh), FGFR1OP (ProbeSet 11751329_s_at) / Fold change (Aza/veh), VPS36 (ProbeSet 11739960_a_at) / Fold change (ACY-1035/veh), VPS36 (ProbeSet 11739960_a_at) / RFU SYPL1 (11715823_x_at) / Fold change /veh SYPL1 (11715823_x_at) / RFU IGFBP7 (11715501_s_at) / Fold change /veh IGFBP7 (11715501_s_at) / RFU REEP3 (11722064_at) / Fold change /veh REEP3 (11722064_at) / RFU IGLL1 (11728026_x_at) / Fold change /veh IGLL1 (11728026_x_at): dose or concentration left out as unconfirmed
Conditions: MV-4-11 cells, 48 hours

Nc1ncn([C@@H]2O[C@H](CO)[C@@H](O)[C@H]2O)c(=O)n1 [azacitidine]
Fold change /veh CNN1 (11734310_a_at): 1.15
